21 compounds from patent US20250074891A1 (Anaxis Pharma Pty Ltd., priority 2021, published 2025) can be followed below.

What all share (details): Table 35
Assay [1] addresses MLKL (full length) (Homo sapiens (Human), UniProt Q8NB16). The experiment in a line: KINOMEscan binding assay, MLKL (full length). On the procedure:
(§1) Kinase assays. For most assays, kinase-tagged T7 phage strains were grown in parallel in 24-well blocks in an E. coli host derived from the BL21 strain. E. coli were grown to log-phase and infected with T7 phage from a frozen stock (multiplicity of infection=0.4) and incubated with shaking at 32° C. until lysis (90-150 minutes).
(§2) The Hill Slope was set to −1.

Assay [2] addresses RIP1 (Homo sapiens (Human), UniProt Q13546). Description: KINOMEscan binding assay, RIP1.
The target of assay [3] is RIP3 (Homo sapiens (Human), UniProt Q9Y572). Description: KINOMEscan binding assay, RIP3. On the procedure:
as §1, §2

Sequence of RIP1 (Q13546 whole entry): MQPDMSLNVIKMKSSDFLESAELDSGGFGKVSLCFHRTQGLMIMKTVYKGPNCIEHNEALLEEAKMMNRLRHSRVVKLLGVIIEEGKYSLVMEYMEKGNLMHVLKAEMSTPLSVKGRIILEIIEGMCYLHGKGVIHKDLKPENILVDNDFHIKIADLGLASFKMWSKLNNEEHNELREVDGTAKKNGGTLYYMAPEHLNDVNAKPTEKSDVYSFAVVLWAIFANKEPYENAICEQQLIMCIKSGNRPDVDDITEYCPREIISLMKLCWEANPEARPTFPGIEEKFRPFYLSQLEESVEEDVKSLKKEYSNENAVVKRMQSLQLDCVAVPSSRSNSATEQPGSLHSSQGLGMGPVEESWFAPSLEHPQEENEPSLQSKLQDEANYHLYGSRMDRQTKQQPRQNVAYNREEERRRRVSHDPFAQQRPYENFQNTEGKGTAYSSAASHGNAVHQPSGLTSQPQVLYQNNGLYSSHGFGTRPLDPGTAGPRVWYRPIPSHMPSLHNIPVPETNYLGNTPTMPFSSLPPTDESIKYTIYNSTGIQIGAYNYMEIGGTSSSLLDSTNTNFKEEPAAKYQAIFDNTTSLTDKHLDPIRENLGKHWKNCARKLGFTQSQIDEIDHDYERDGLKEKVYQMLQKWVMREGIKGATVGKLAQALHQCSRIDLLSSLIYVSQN
Sequence of RIP3 (Q9Y572 whole entry): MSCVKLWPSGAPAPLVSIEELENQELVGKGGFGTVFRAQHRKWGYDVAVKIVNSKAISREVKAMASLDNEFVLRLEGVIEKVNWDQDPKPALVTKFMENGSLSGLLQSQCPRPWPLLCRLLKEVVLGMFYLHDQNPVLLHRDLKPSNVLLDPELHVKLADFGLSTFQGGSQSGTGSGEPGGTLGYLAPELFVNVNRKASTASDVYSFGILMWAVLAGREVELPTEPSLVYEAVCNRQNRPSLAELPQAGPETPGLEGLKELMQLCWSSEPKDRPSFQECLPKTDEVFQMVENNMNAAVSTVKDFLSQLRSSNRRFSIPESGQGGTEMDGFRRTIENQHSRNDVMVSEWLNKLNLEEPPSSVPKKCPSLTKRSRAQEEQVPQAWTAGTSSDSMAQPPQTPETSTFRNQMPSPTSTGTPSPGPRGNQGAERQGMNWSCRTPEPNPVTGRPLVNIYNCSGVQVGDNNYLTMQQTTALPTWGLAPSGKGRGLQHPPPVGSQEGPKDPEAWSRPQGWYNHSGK
Sequence of MLKL (full length) (Q8NB16 whole entry): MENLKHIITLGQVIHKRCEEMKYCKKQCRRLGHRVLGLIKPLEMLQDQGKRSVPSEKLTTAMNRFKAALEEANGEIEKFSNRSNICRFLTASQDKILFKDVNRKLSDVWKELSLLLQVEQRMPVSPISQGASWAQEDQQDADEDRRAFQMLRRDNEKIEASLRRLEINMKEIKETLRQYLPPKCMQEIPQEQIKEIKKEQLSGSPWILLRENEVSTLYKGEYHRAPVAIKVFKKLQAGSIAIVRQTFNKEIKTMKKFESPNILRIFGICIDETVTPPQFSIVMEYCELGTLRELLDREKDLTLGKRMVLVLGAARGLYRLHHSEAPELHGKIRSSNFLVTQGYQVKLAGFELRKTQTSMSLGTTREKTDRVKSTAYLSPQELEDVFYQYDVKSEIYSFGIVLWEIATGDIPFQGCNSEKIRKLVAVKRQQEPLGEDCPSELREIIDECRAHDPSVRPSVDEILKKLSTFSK

For the compound `C[C@H](Oc1cc(-c2n[nH]c(Nc3cc(C(F)(F)F)n(C)n3)c2C(N)=O)ccc1NS(=O)(=O)C(F)F)c1ccc(F)cc1` [Compound 277, (S)-3-(4-((difluoromethyl)sulfonamido)-3-(1-(4-fluorophenyl)ethoxy)phenyl)-5-((1-methyl-5-(trifluoromethyl)-1H-pyrazol-3-yl)amino)-1H-pyrazole-4-carboxamide], the Kd in assay [1] is under 0.01 µM; in assay [2] it was over 30 µM; in assay [3], over 30 µM.
With `C[C@H](Oc1cc(-c2n[nH]c(Nc3ccc(C4CCOCC4)cn3)c2C(N)=O)ccc1NS(=O)(=O)C(F)F)c1ccc(F)cc1` [Compound 278], the Kd was under 0.01 µM in assay [1], over 30 µM in assay [2] and over 30 µM in assay [3].
For `C[C@H](Oc1cc(-c2n[nH]c(Nc3cc(C4CCC4)on3)c2C(N)=O)ccc1NS(=O)(=O)C(F)F)c1ccc(F)cc1` [Compound 281, (S)-5-((5-cyclobutylisoxazol-3-yl)amino)-3-(4-((difluoromethyl)sulfonamido)-3-(1-(4-fluorophenyl)ethoxy)phenyl)-1H-pyrazole-4-carboxamide], the Kd in assay [1] was under 0.01 µM; in assay [2], over 30 µM; in assay [3] it was over 30 µM.
Take `C[C@H](Oc1cc(-c2n[nH]c(Nc3cc(C(C)(C)C)on3)c2C(N)=O)ccc1NS(=O)(=O)C(F)F)c1ccc(F)cc1` [Compound 282, (S)-5-((5-(tert-butyl)isoxazol-3-yl)amino)-3-(4-((difluoromethyl)sulfonamido)-3-(1-(4-fluorophenyl)ethoxy)phenyl)-1H-pyrazole-4-carboxamide]: the dissociation constant Kd was under 0.01 µM in assay [1], over 30 µM in assay [2] and over 30 µM in assay [3].
On to `C[C@H](Oc1cc(-c2n[nH]c(Nc3ncn(C)n3)c2C(N)=O)ccc1NS(=O)(=O)C(F)F)c1ccc(F)cc1` [Compound 283, (S)-3-(4-((difluoromethyl)sulfonamido)-3-(1-(4-fluorophenyl)ethoxy)phenyl)-5-((1-methyl-1H-1,2,4-triazol-3-yl)amino)-1H-pyrazole-4-carboxamide], for which the Kd in assay [1] is under 0.01 µM; in assay [2], over 30 µM; in assay [3], over 30 µM.
As for `Cc1nc(Nc2[nH]nc(-c3ccc(NS(=O)(=O)C(F)F)c(O[C@@H](C)c4ccc(F)cc4)c3)c2C(N)=O)sc1C` [Compound 284, (S)-3-(4-((difluoromethyl)sulfonamido)-3-(1-(4-fluorophenyl)ethoxy)phenyl)-5-((4,5-dimethylthiazol-2-yl)amino)-1H-pyrazole-4-carboxamide], the results for the equilibrium dissociation constant (Kd) in assay [1], in assay [2] and in assay [3] were under 0.01 µM, over 30 µM and over 30 µM, respectively.
`Cc1cn(C)nc1Nc1[nH]nc(-c2ccc(NS(=O)(=O)C(F)F)c(O[C@@H](C)c3ccc(F)cc3)c2)c1C(N)=O` [Compound 286, (S)-3-(4-((difluoromethyl)sulfonamido)-3-(1-(4-fluorophenyl)ethoxy)phenyl)-5-((1,4-dimethyl-1H-pyrazol-3-yl)amino)-1H-pyrazole-4-carboxamide]: the Kd was under 0.01 µM in assay [1], over 30 µM in assay [2] and over 30 µM in assay [3].
With `C[C@H](Oc1cc(-c2n[nH]c(Nc3cc(C4CCOCC4)ccn3)c2C(N)=O)ccc1NS(=O)(=O)C(F)F)c1ccc(F)cc1` [Compound 287, (S)-3-(4-((difluoromethyl)sulfonamido)-3-(1-(4-fluorophenyl)ethoxy)phenyl)-5-((4-(tetrahydro-2H-pyran-4-yl)pyridin-2-yl)amino)-1H-pyrazole-4-carboxamide], the Kd in assay [1] is under 0.01 µM; in assay [2] it was over 30 µM; in assay [3], over 30 µM.
Consider `COCC(C)(C)c1cc(Nc2[nH]nc(-c3ccc(NS(=O)(=O)C(F)F)c(O[C@@H](C)c4ccc(F)cc4)c3)c2C(N)=O)no1` [Compound 288, (S)-3-(4-((difluoromethyl)sulfonamido)-3-(1-(4-fluorophenyl)ethoxy)phenyl)-5-((5-(1-methoxy-2-methylpropan-2-yl)isoxazol-3-yl)amino)-1H-pyrazole-4-carboxamide], for which the Kd is under 0.01 µM in assay [1], over 30 µM in assay [2] and over 30 µM in assay [3].
On to `C[C@H](Oc1cc(-c2n[nH]c(Nc3cc(C4(C(F)(F)F)CC4)on3)c2C(N)=O)ccc1NS(=O)(=O)C(F)F)c1ccc(F)cc1` [Compound 289, (S)-3-(4-((difluoromethyl)sulfonamido)-3-(1-(4-fluorophenyl)ethoxy)phenyl)-5-((5-(1-(trifluoromethyl)cyclopropyl)isoxazol-3-yl)amino)-1H-pyrazole-4-carboxamide], for which the results for the Kd in assay [1], in assay [2] and in assay [3] were under 0.01 µM, over 30 µM and over 30 µM, respectively.
Take `Cc1cnc(Nc2[nH]nc(-c3ccc(NS(=O)(=O)C(F)F)c(OC4(c5ccc(F)cc5)CC4)c3)c2C(N)=O)cn1` [Compound 290, 3-(4-((difluoromethyl)sulfonamido)-3-(1-(4-fluorophenyl)cyclopropoxy)phenyl)-5-((5-methylpyrazin-2-yl)amino)-1H-pyrazole-4-carboxamide]: the Kd in assay [1] was under 0.01 µM; in assay [2], over 30 µM; in assay [3], over 30 µM.
As to `C[C@H](Oc1cc(-c2n[nH]c(Nc3cc(C4(C)COC4)on3)c2C(N)=O)ccc1NS(=O)(=O)C(F)F)c1ccc(F)cc1` [Compound 292, (S)-3-(4-((difluoromethyl)sulfonamido)-3-(1-(4-fluorophenyl)ethoxy)phenyl)-5-((5-(3-methyloxetan-3-yl)isoxazol-3-yl)amino)-1H-pyrazole-4-carboxamide], the equilibrium dissociation constant (Kd) in assay [1] is under 0.01 µM; in assay [2], over 30 µM; in assay [3], over 30 µM.
Consider `COc1cc(Nc2[nH]nc(-c3ccc(NS(=O)(=O)C(F)F)c(O[C@@H](C)c4ccc(F)cc4)c3)c2C(N)=O)nn1C` [Compound 294, (S)-3-(4-((difluoromethyl)sulfonamido)-3-(1-(4-fluorophenyl)ethoxy)phenyl)-5-((5-methoxy-1-methyl-1H-pyrazol-3-yl)amino)-1H-pyrazole-4-carboxamide], for which the Kd is under 0.01 µM in assay [1], over 30 µM in assay [2] and over 30 µM in assay [3].
In the case of `C[C@H](Oc1cc(-c2n[nH]c(Nc3cc(C(C)(C)C)no3)c2C(N)=O)ccc1NS(=O)(=O)C(F)F)c1ccc(F)cc1` [Compound 295, (S)-5-((3-(tert-butyl)isoxazol-5-yl)amino)-3-(4-((difluoromethyl)sulfonamido)-3-(1-(4-fluorophenyl)ethoxy)phenyl)-1H-pyrazole-4-carboxamide], the Kd was under 0.01 µM in assay [1], over 30 µM in assay [2] and over 30 µM in assay [3].
Consider `C[C@H](Oc1cc(-c2n[nH]c(Nc3cnc(C4CCOCC4)cn3)c2C(N)=O)ccc1NS(=O)(=O)C(F)F)c1ccc(F)cc1` [Compound 296, (S)-3-(4-((difluoromethyl)sulfonamido)-3-(1-(4-fluorophenyl)ethoxy)phenyl)-5-((5-(tetrahydro-2H-pyran-4-yl)pyrazin-2-yl)amino)-1H-pyrazole-4-carboxamide], for which the Kd in assay [1] is under 0.01 µM; in assay [2], over 30 µM; in assay [3] it was over 30 µM.
Take `C[C@H](Oc1cc(-c2n[nH]c(Nc3cc(C(C)(C)F)on3)c2C(N)=O)ccc1NS(=O)(=O)C(F)F)c1ccc(F)cc1` [Compound 297, (S)-3-(4-((difluoromethyl)sulfonamido)-3-(1-(4-fluorophenyl)ethoxy)phenyl)-5-((5-(2-fluoropropan-2-yl)isoxazol-3-yl)amino)-1H-pyrazole-4-carboxamide]: the Kd in assay [1] was under 0.01 µM; in assay [2], over 30 µM; in assay [3], over 30 µM.
Take `COC[C@@H](Oc1cc(-c2n[nH]c(Nc3cc(C)on3)c2C(N)=O)ccc1NS(=O)(=O)C(F)F)c1ccc(F)cc1` [Compound 300, (S)-3-(4-((difluoromethyl)sulfonamido)-3-(1-(4-fluorophenyl)-2-methoxyethoxy)phenyl)-5-((5-methylisoxazol-3-yl)amino)-1H-pyrazole-4-carboxamide]: the equilibrium dissociation constant (Kd) in assay [1] is under 0.01 µM; in assay [2], over 30 µM; in assay [3] it was over 30 µM.
Turning to `Cc1cc(Nc2[nH]nc(-c3ccc(NS(=O)(=O)C(F)F)c(O[C@@H](C)c4ccc(F)cc4)c3)c2C(N)=O)on1` [Compound 302, (S)-3-(4-((difluoromethyl)sulfonamido)-3-(1-(4-fluorophenyl)ethoxy)phenyl)-5-((3-methylisoxazol-5-yl)amino)-1H-pyrazole-4-carboxamide], the figures for the Kd in assay [1], in assay [2] and in assay [3] were under 0.01 µM, over 30 µM and over 30 µM, respectively.
Regarding `C[C@H](Oc1cc(-c2n[nH]c(Nc3cc(C4CCOCC4)on3)c2C(N)=O)ccc1NS(=O)(=O)C(F)F)c1ccc(F)cc1` [Compound 303, (S)-3-(4-((difluoromethyl)sulfonamido)-3-(1-(4-fluorophenyl)ethoxy)phenyl)-5-((5-(tetrahydro-2H-pyran-4-yl)isoxazol-3-yl)amino)-1H-pyrazole-4-carboxamide], the dissociation constant (Kd) in assay [1] was under 0.01 µM; in assay [2], over 30 µM; in assay [3], over 30 µM.
Consider `C[C@H](Oc1cc(-c2n[nH]c(Nc3cc(C4CCOC4)on3)c2C(N)=O)ccc1NS(=O)(=O)C(F)F)c1ccc(F)cc1` (stereo partly drawn) [Compound 305, 3-(4-((difluoromethyl)sulfonamido)-3-((S)-1-(4-fluorophenyl)ethoxy)phenyl)-5-((5-(tetrahydrofuran-3-yl)isoxazol-3-yl)amino)-1H-pyrazole-4-carboxamide], for which the results for the Kd in assay [1], in assay [2] and in assay [3] were under 0.01 µM, over 30 µM and over 30 µM, respectively.
With `C[C@H](Oc1cc(-c2n[nH]c(Nc3cnn(C4CCOCC4)c3)c2C(N)=O)ccc1NS(=O)(=O)C(F)F)c1ccc(F)cc1` [Compound 306, (S)-3-(4-((difluoromethyl)sulfonamido)-3-(1-(4-fluorophenyl)ethoxy)phenyl)-5-((1-(tetrahydro-2H-pyran-4-yl)-1H-pyrazol-4-yl)amino)-1H-pyrazole-4-carboxamide], the Kd is under 0.01 µM in assay [1], over 30 µM in assay [2] and over 30 µM in assay [3].

As usually defined, the Kd is the constant that tells how readily two partners part at equilibrium. High values mean weaker binding, low ones tighter binding.
